Test results reported in publication PMC2922960 (Bioorganic & medicinal chemistry letters, 2009).

Legend:
[1] = biological target: T1, recombinant mammalian FTase (Homo sapiens, UniProt P49354+P49356); assay: HPLC analysis of farnesylated peptide product formation; format: biochemical; conditions: 3 μM peptide, 9 μM FPP, 0.05 μM FTase; for HPLC: formation of farnesylated peptide product: after 60 min incubation with FTase
[2] = biological target: T1, recombinant mammalian FTase; assay: continuous spectrofluorimetric assay of FTase substrate activity; format: biochemical; conditions: from fluorescence screen and HPLC confirmation
FTase [3] = biological target: FTase (Homo sapiens, UniProt P49354+P49356); assay: steady-state kinetic assay; format: biochemical, mammalian; conditions: saturating FPP (10 μM), 0.2-10 μM dansylated peptide, 20-100 nM FTase, 50 mM HEPPSO pH 7.8, 5 mM TCEP, 5 mM MgCl2, 25 °C; fluorescence λex 340 nm, λem 520 nm
FTase [4] = conditions: cited from earlier work

Substance | HPLC: formation of farnesylated peptide product [1] | also measured
CKVL | + (25% to 50% conversion to product) | FTase substrate ability (category in words) [2]: relatively modest FTase substrates
CQNL | − − | 
CLLL | + (25% to 50% conversion to product) | FTase substrate ability (category in words) [2]: poor FTase substrate
DnGCVIL | +++ | kcat/KM (FTase [3]): 47000 ± 8000 M⁻¹ s⁻¹
CNIL | ++ | kcat/KM (FTase [3]): 12000 ± 900 M⁻¹ s⁻¹
CILL | ++ | kcat/KM (FTase [3]): 8000 ± 2000 M⁻¹ s⁻¹
CCVL | +++ | kcat/KM (FTase [3]): 7000 ± 1000 M⁻¹ s⁻¹
DnTKCVIL |  | FTase substrate activity under single turnover conditions (FTase [4]; single turnover conditions): FTase substrate; FTase turnover under steady-state conditions (FTase [4]; steady-state conditions): did not exhibit efficient turnover
CSTL | − − | 
CSFL | − − | 
CSVL | + (25% to 50% conversion to product) | 
CGQL | − − | 
CVLL | + (25% to 50% conversion to product) | FTase substrate ability (category in words) [2]: relatively modest FTase substrates
DnGCVLS [reference compound] |  | turnover to farnesylated product ([1]; after 15 minutes): complete turnover
CTAL | − − | 
DnGCLML | ++ | kcat/KM (FTase [3]): 8100 ± 500 M⁻¹ s⁻¹; FTase substrate ability (category in words) [2]: good FTase substrate
CSQL | − − | 
CLVL | + (25% to 50% conversion to product) | 
CNPL | − − | 
CCSL | − − | 
CMEL | − − | 
CLGL | − − | 

Substance | HPLC: formation of farnesylated peptide product [1] | also measured
CGCL | − − | 
CALL | + (25% to 50% conversion to product) | 
CLQL | − (less than 25% conversion) | 
CGGL | − − | 
CTIL | ++ | kcat/KM (FTase [3]): 33000 ± 7000 M⁻¹ s⁻¹
CTLL | + (25% to 50% conversion to product) | 
CHAL | − − | 
CLIL | ++ | FTase substrate ability (category in words) [2]: confirmed substrates
CPIL | + (25% to 50% conversion to product) | FTase substrate ability (category in words) [2]: confirmed substrates
DnGCCIL | +++ | kcat/KM (FTase [3]): 23000 ± 3000 M⁻¹ s⁻¹; FTase substrate ability (category in words) [2]: efficient FTase substrate
CAYL | − − | 
CVGL | − − | 
CIIL | +++ | kcat/KM (FTase [3]): 43000 ± 8000 M⁻¹ s⁻¹
CSIL | +++ | kcat/KM (FTase [3]): 5000 ± 1000 M⁻¹ s⁻¹
CHPL | − − | 
CAIL | +++ | kcat/KM (FTase [3]): 27000 ± 2000 M⁻¹ s⁻¹
CSLL | − (less than 25% conversion) | 
CEKL | − − | 
CQLL | − (less than 25% conversion) | 
CCLL | + (25% to 50% conversion to product) | 
CRLL | + (25% to 50% conversion to product) | 
